# Test results taken from patent publication US20050004167A1, “Branched chain amino acid-dependent aminotransferase inhibitors and their use in the treatment of neurodegenerative diseases” (WARNER-LAMBERT COMPANY LLC, priority 2001, published 2005).
# pIC50: −log10 of the molar value. “And” between values parts separate entries of the source, which are not always exact repeats. Equal values may be shown once.
# Columns and labels:
# rat BCAT cytosolic form = molecular target: T1, rat BCAT cytosolic form (Rattus norvegicus, UniProt P54690); experiment: In vitro coupled enzyme assay (glutamate dehydrogenase, NADH formation), rat BCATc; format: biochemical; conditions: recombinant rat BCATc, 37° C., 25 mM phosphate buffer pH 7.8; several values in a cell = repeat determinations; read-out: RrBCATc
# T1 construct: made in house; host or cells: E. coli BL21(DE3)
# T1 sequence (P54690 1-411): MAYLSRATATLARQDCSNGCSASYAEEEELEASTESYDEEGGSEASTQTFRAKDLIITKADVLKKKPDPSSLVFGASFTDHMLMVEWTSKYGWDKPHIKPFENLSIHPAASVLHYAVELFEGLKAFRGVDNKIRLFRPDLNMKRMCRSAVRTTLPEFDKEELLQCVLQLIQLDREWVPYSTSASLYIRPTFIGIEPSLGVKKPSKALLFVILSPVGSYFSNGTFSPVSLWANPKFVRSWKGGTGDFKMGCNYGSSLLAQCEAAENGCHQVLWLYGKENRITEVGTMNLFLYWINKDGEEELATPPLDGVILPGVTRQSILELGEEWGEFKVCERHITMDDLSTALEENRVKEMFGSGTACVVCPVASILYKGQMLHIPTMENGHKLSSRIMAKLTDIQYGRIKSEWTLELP
# Description: (§1) In vitro enzyme assay—human Branched Chain Amino Acid Aminotransferase cytosolic form (hBCATc) and mitochondrial form (hBCATm) as well as rat BCAT cytosolic form were assayed at 37° C. in 25 mM phosphate buffer pH 7.8. In addition, 2 mM DTT and 12.5 mM […] were added to the assay mixture. A coupling enzyme assay was used to monitor the production of glutamate. The formation of NADH from NAD+ at […] was followed on a 96-well plate Molecular Devices plate reader.
# (§2) The following components were used in this coupled assay: 4 mM ADP, 1 mM NAD+, 750 μM L-Leucine, 500 μM α-ketoglutarate, 10 μM pyridoxal phosphate, 1 unit glutamate dehydrogenase, and 1.25 μg of the appropriate BCAT enzyme. Inhibitions by compounds were assayed by adding various concentrations to this coupled assay procedure as a DMSO stock up to a 5% v/v DMSO/buffer ratio.
# (§3) Enzyme Preparation—humanBCATc and ratBCATc were expressed in BL21(DE3) cells. A growing culture of cells was induced with 1 mM IPTG at room temperature overnight. These cells were harvested by centrifugation at 10,000 g for 20 minutes. The supernatant was discarded, and the cells were stored at −80° C. until needed. The protein was purified by the following method. The cell paste was resuspended in extraction buffer (0.1 M phosphate, pH 8.0, with 0.01 M Tris-HCL and 5 mM TCEP and then lysed on a French Press at 1000 psi. The lysate was centrifuged at 10,000 g for 15 minutes, and the pellet was discarded. The supernatant was loaded onto a Hitrap Chelating column previously charged with 0.1 M NiSO4 and washed with 3 to 4 column volumes of extraction buffer. The column was then washed with 0.01 Tris, pH 7.5, 10% glycerol, 150 mM NaCl, 5 mM TCEP for two column volumes. The column was then further washed with two column volumes of 0.1 M phosphate, pH 6.0, 0.01 M Tris, 10% glycerol and 750 mM NaCl. Finally, the column was washed with two column volumes of the same buffer plus 50 mM imidazole. The BCAT enzyme was then eluted with the same buffer but with 350 mM imidazole. The eluant was then dialyzed overnight against 10 mM phosphate buffer pH 8.0, 10% glycerol, and 5 mM TCEP. The dialyzed protein was then loaded onto a Q-sepharose column and eluted using a salt gradient. Active fractions were collected and further purified on a Superose-12 column to yield pure BCAT protein.
# [1] = molecular target: T2, human Branched Chain Amino Acid Aminotransferase cytosolic form (hBCATc) (Homo sapiens, UniProt P54687); experiment: In vitro coupled enzyme assay (glutamate dehydrogenase, NADH formation), human BCATc; format: biochemical; conditions: recombinant human BCATc, 37° C., 25 mM phosphate buffer pH 7.8; several values in a cell = repeat determinations; read-out: RhBCATc
# T2 construct: made in house; host or cells: E. coli BL21(DE3)
# T2 sequence (P54687 1-386): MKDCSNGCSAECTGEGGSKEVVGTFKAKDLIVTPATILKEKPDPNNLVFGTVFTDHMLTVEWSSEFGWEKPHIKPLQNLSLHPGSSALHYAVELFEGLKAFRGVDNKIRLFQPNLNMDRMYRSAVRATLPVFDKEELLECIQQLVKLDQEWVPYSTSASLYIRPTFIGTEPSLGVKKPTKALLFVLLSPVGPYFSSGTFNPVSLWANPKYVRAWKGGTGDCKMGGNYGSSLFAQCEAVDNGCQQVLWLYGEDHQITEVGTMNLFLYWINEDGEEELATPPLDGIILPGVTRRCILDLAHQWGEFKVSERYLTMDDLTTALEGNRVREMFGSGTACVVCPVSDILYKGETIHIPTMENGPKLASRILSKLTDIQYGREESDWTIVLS
# Description: as §1, §2, §3
pIC50 (rat BCAT cytosolic form),pIC50 [1],Compound
5.91,4.89,"COc1ccc2oc(C(=O)NNS(=O)(=O)c3ccccc3)cc2c1 [Example 4, 5-Methoxy-2-benzofurancarboylic acid 2-(phenylsulfonyl)hydrazide]"
4.45,4.33,"O=C(NNS(=O)(=O)c1ccc(Br)cc1OC(F)(F)F)c1ccc2oc3ccccc3c2c1 [Example 99, 2-Dibenzofurancarboxylic acid, 2-[(4-bromo-2-trifluoromethoxyphenyl)sulfonyl]-hydrazide]"
6.48,5.32,"COc1c(C(=O)NNS(=O)(=O)c2ccccc2C(F)(F)F)oc2c(OC)cccc12 [Example 62, 2-Benzofurancarboxylic acid, 3,7-dimethoxy-, 2-[(2-trifluoromethylphenyl)-sulfonyl]hydrazide]"
4.90,4.44,"O=C(NNS(=O)(=O)c1ccccc1OC(F)(F)F)c1cnc2ccccc2c1 [Example 126, 3-Quinolinecarboxylic acid, 2-[[2-(trifluoromethoxy)phenyl]sulfonyl]hydrazide]"
6.01,5.21,"Cc1ccc2oc(C(=O)NNS(=O)(=O)c3cccc(Cl)c3)cc2c1 [Example 84, 2-Benzofurancarboxylic acid, 5-methyl-, 2-[(3-chlorophenyl)sulfonyl]hydrazide]"
6.54,5.00,"O=C(NNS(=O)(=O)c1ccccc1)c1cc2cc(Br)ccc2o1 [Example 29, 2-Benzofurancarboxylic acid, 5-bromo-, 2-(phenylsulfonyl)hydrazide]"
5.86,4.67,"Cc1ccc2oc(C(=O)NNS(=O)(=O)c3ccccc3OC(F)(F)F)cc2c1 [Example 85, 2-Benzofurancarboxylic acid, 5-methyl-, 2-[[2-(trifluoromethoxy)phenyl]-sulfonyl]hydrazide]"

# Continued, compound first:
Compound,pIC50 (rat BCAT cytosolic form),pIC50 [1]
"Cc1cccc(S(=O)(=O)NNC(=O)c2ccc3ccccc3c2)c1 [Example 111, 2-Naphthalenecarboxylic acid, 2-[(3-methylphenyl)sulfonyl]hydrazide]",6.33,6.33 and 5.55
"O=C(NNS(=O)(=O)c1cccc(Cl)c1Cl)c1ccc2ccccc2c1 [Example 120, 2-Naphthalenecarboxylic acid, 2-[(2,3-dichlorophenyl)sulfonyl]hydrazide]",5.70,4.74
"O=C(NNS(=O)(=O)c1ccccc1)c1cnc2ccccc2c1 [Example 154, Quinoline-3-carboxylic acid 2-(phenylsulfonyl)hydrazide]",5.44,4.62
"Cc1cccc2cc(C(=O)NNS(=O)(=O)c3ccccc3)oc12 [Example 86, 2-Benzofurancarboxylic acid, 7-methyl-, 2-(phenylsulfonyl)hydrazide]",6.62,4.82
"COc1ccc2oc(C(=O)NNS(=O)(=O)c3ccccc3)c(OC(C)C)c2c1 [Example 57, 2-Benzofurancarboxylic acid, 5-methoxy-3-(1-methylethoxy), 2-(phenylsulfonyl)-hydrazide]",6.85,5.94
"O=C(NNS(=O)(=O)c1ccccc1)c1ccc2[nH]ccc2c1 [Example 153, 1H-Indole-5-carboxylic acid 2-(phenylsulfonyl)hydrazide]",5.72,4.82
"O=C(NNS(=O)(=O)c1ccccc1Cl)c1ccc2ccccc2c1 [Example 118, 2-Naphthalenecarboxylic acid, 2-[(2-chlorophenyl)sulfonyl]hydrazide]",5.74,4.60
"O=C(NNS(=O)(=O)c1ccccc1)c1ccc2c(c1)OCO2 [Example 10, Benzo[1,3]dioxole-5-carboxylic acid 2-(phenylsulfonyl)hydrazide]",5.54,4.18
"CCc1ccc(S(=O)(=O)NNC(=O)c2ccc3ccccc3c2)cc1 [Example 121, 2-Naphthalenecarboxylic acid, 2-[(4-ethylphenyl)sulfonyl]hydrazide]",4.94,4.26
